Laboratory results published in US20240307346A1, “METHOD FOR TREATING OR PREVENTING A DISEASE OF INCOMPLETE IMMUNE RECONSTITUTION IN AIDS USING (5R)-5-HYDROXYTRIPTOLIDE” (PEKING UNION MEDICAL COLLEGE HOSPITAL, priority 2018, published 2024).
In brackets after ≈: the same amount, converted by molar mass.

Columns and labels:
[1] = tested on: NF-κB; test: NF-κB luciferase reporter (p3κB-luc) assay in HEK293T cells; type: cell-based; details: for inhibition of the activity of the NF-κB signal pathway activated by TNF-α / inhibition of the activity of the background NF-κB signaling pathway: Comparative Example 2, HEK293T, FIG. 5; for inhibition of the activity of the NF-κB signal pathway activated by TNF-α: TNF-α 20 ng/ml; for inhibition of the activity of the background NF-κB signaling pathway: no TNF-α
Protocol: NF-κB driven […] expression plasmid (p3κB-luc, 100 ng) and internal reference plasmid pBgal (purchased from Bioonline: www.bioon.com.cn) (pSV-β-Galactosidase Control Vector, β-galactosidase expression plasmid, 5 ng) were transfected into HEK293T cells (purchased from ATCC). […] After another 24 hours, all cells were collected and lysed with reporter lysis buffer (purchased from Promega). Luciferase assay system (Promega) was used to detect luciferase activity. Beta-Glo Asaay system (Promega) was used to detect β-Galactosidase activity, and the inhibition effects of T8 on NF-κB activity was analyzed.
The NF-κB reporter gene plasmid p3κB-luc was transfected into HEK293T cells for expression, and pSV-β-Galactosidase Control Vector was co-transfected as transfection internal reference. The activation of NF-κB was induced by TNF-α treatment. T8 and triptolide were added respectively. The expression of NF-κB reporter gene was indicated by detecting luciferase activity, and the effect of T8 and triptolide on NF-κB activation induced by TNF-α was evaluated.
Cell transfection: HEK293T cells were transfected with lipofectamine 2000 Transfection Reagent according to the reagent instructions. 100 ng of plasmid was transfected with 1 μL of transfection reagent into each well of a 24-well cell cultureplate. The plasmid and the transfection reagent were diluted with […] of OPTI-MEM medium, respectively and then mixed together. The mixture was allowed to stand at room temperature for 5 minutes, and then added into the cells in each well. The resulting mixture was mixed gently, placed back into the 37° C. incubator, and the cells were cultured for a specified time.
Luciferase activity detection: NF-κB reporter gene plasmid p3κB-luc plasmid (100 ng), internal reference plasmid pSV-β-Galactosidase Control Vector (5 ng) were transfected into HEK293T cells. After 24 hours. TNF-α (20 ng/ml) was added (or not added) to stimulate the cells for 24 hours, and then the cells were collected and lysed with reporter lysis buffer. Luciferase assay system was used to detect luciferase activity. and Beta-Glo Asaay system was used to detect β-Galactosidase activity.

[2] = tested on: HIV-1; test: Phase II trial: plasma HIV-1 viral load; type: in vivo, human; details: all participants, with ART, 48 weeks
Protocol: Plasma HIV-1 viral load was measured at Peking Union Medical College Hospital (PUMCH) Lab by COBAS AmpliPrep/COBAS TaqMan V2.0 RT-PCR (Roche). The lower detection limit is 20 copies per milliliter.

[3] = Phase II trial: safety (adverse events); type: in vivo, human; details: for participants with treatment-emergent adverse events (TEAEs): placebo 80.7%
Protocol: (§1) The patients were 1:1:1 assigned to receive oral T8 0.5 mg or 1 mg daily, or placebo combined with antiretroviral therapy for 48 weeks. All study staff and participants were masked. The study drug was recommended to be taken in the morning on an empty stomach, and be separated from participants' daily ART. Participants were followed and assessed at Week 4, 12, 24, 36 and 48 of treatment. On each scheduled visit, the investigator would assess the participant's general status, newly-onset symptoms and signs, and adverse events.
Safety endpoints included occurrence of adverse events (AEs) and serious adverse events (SAEs) over the study period. Adverse events included those related to the study drug; all serious adverse events; and abnormal laboratory test values at each study visit.
The efficacy analysis was based on the full analysis set (FAS), which included all randomized patients with at least one posttreatment efficacy assessment, and the per-protocol set (PPS), which included patients who completed the study with proper study drug exposure and without any major protocol violations. The safety analysis was based on the safety analysis set (SAS), which included all randomized patients who received at least one dose of study drug. All safety results were descriptive, listed and summarized.

[4] = tested on: CD8 T cells; test: Phase II trial: cellular activation of CD8 T cells (CD38, HLA-DR); type: in vivo, human; details: among the three groups (0.5 mg, 1 mg, placebo), 62 participants
Protocol: T-cell subsets were measured using CytoFlex flow cytometer (Beckman Coulter Life Science) at participating centers, including T cells (CD45+CD3+), CD4 T cells (CD45+CD3+CD4+), and CD8 T cells (CD45+CD3+CD8+). In PUMCH Lab. exploratory CD8 markers (CD45+CD3+CD8+CD38+ and CD45+CD3+CD8+HLA-DR+) were further measured for participants in three Beijing centers.

[5] = tested on: interferon-γ-induced protein 10 (IP-10); test: Phase II trial: serum IP-10; type: in vivo, human; design: mean change of serum interferon-γ-induced protein 10: unit not given here; details: placebo −22.8; for mean change of serum IP-10 level: Week 48
Protocol: (§2) The phase II, double-blind, randomized, placebo-controlled trial was conducted in adults patients with long-term suppressed HIV infection and suboptimal CD4 recovery, at nine hospitals in China.
as §1
(§3) The primary endpoints of the study included 1) Absolute change of CD4 counts from baseline to week 48: 2) Proportions of participants achieving a CD4 increase ≥50 cells/mm^3 from baseline to week 48: and 3) changes of selected inflammatory markers from baseline to week 48, including interferon-y-induced protein 10 (IP-10), high-sensitivity C-reactive protein (hsCRP), and IL-6.
The primary efficacy differences between treatments on CD4 counts and inflammatory marker level were assessed through the t-test and analysis of covariance (ANCOVA) model. The ANCOVA model, including the baseline CD4 counts as the covariate, study group and center as fixed factors, generated the Least square means (LSMEANs) and relative 95% confidence interval (95% CI) in both FAS and PPS.

[6] = tested on: CD4+T-cell subsets; test: Activation of CD4+T-cell subsets (CD38, HLA-DR expression by flow cytometry); details: for inhibition of immune activation of CD4+T-cell subsets by PMA+Ionomycin (CD38, HLA-DR): Comparative example 3, PMA 100 nM + Ionomycin 1 μM, 100 ng/ml; for inhibition of immune activation of CD4+T-cell subsets by PMA+Ionomycin (CD38, HLA-DR) / inhibition of immune activation of CD4+T-cell subsets by anti-CD3/CD28 antibody (CD38, HLA-DR): 72 hours; for inhibition of immune activation of CD4+T-cell subsets by anti-CD3/CD28 antibody (CD38, HLA-DR): Comparative example 3, isolated CD4+T-cells, anti-CD3/CD28 beads
Protocol: After 48 hours, the cells were stained with anti-human CD4, CD38, HLA-DR flow cytometry antibody (purchased from Invitrogen), and the CD4^+T-cells were gated by flow cytometry to detect the expression of CD38, HLA-DR molecules on the cell surface.
Freshly isolated healthy human PBMC (3×10^7 cells) were cultured in cell culture medium containing IL-2 (20 IU/mL), stimulated with PMA (100 nM) and Ionomycin (1 μM) for 72 hours, and the compound to be tested (100 ng/ml) was added at the same time: the cells were washed twice with FACS buffer, followed by addition of anti CD3-PerCP, CD4-PE, CD38-PE-Cy7. HLA-DR-APC antibodies, stained for 30 minutes at 4° C.: the cells were washed twice with FACS buffer, and the expression of the above molecules was detected by FACS.
CD4^+T-cells were isolated from freshly isolated healthy human PBMCs with anti-CD4 antibody-coated magnetic beads through positive screening and then cultured in a medium containing IL-2 (20 IU/mL). The cell activation was stimulated with anti-CD3/CD28 antibody-coated magnetic beads for 72 hours, and the compound to be tested was added at the same time. The cells were collected, washed twice with FACS buffer, followed by addition of anti CD3-PerCP, CD4-PE, CD38-PE-Cy7, HLA-DR-APC antibodies, stained at 4° C. for 30 minutes: the cells were washed twice with FACS buffer and collected, and the expression of the above molecules was detected by flow cytometry.

[7] = tested on: IL-6; test: Phase II trial: IL-6; type: in vivo, human; details: 1 mg daily (HT8), Week 48
Protocol: as §2, §1, §3

[8] = tested on: CD4+T-cells; test: CFSE proliferation of CD4+T-cells in PHA-P stimulated PBMC; type: cell-based, human; details: for inhibition of the proliferation of CD4+T-cells in healthy human peripheral blood: Comparative Example 4, PHA-P 5 μg/mL, 100 ng/mL, 72 hours, FIG. 7
Protocol: Healthy human peripheral blood mononuclear cells (PBMC) (purchased from ATCC) were cultured in RPMI-1640/10% FBS serum medium containing IL-2 (20IU). and then stained with CFSE (carboxyfluorescein diacetate succinimidy ester) (10 nM) at 37° C. for 10 minutes, washed twice with the above medium, followed by addition of PHA-P (phytohemagglutinin P) (5 μg/mL) to stimulate cell proliferation with or without addition of T8 compound (100 nM).
The cells were washed with the medium twice, PHA-P (5 μg/mL) was added, and the test compound T8 or triptolide (100 ng/mL each) was added at the same time. After 72 hours at 37° C. the cells were collected, stained with anti-CD4-PE antibody at 4°° C. for 30 minutes, and washed with FACS buffer twice. The cell proliferation was analyzed by flow cytometry.

[9] = MTT cytotoxicity test; type: cell-based; details: human, HEK293T cells, read-out: CC50 (50% Cytotoxic Concentration)
Protocol: MTT colorimetric method was used to detect the cytotoxicity. HEK293T cells were seeded into 96-well plates (1×10^4/100 μL/well), 100 μL of each concentration of the compounds (compound concentration refers to the figures) was added in triplicate. Control wells without compound were setting at the same time. The cells were incubated in a 37° C. 5% CO2 cell incubator for 72 hours. 100 μL of the supernatant was aspirated from each well and discarded, followed by addition of 20 μL of MTT solution (5 mg/mL) into the wells. […] The absorbance was measured at 595 nm. The CC50 value (50% Cytotoxic Concentration) was calculated, i.e., the concentration of the compound required for producing toxicity on 50% of HEK293T cells.

[10] = tested on: high-sensitivity C-reactive protein (hsCRP); test: Phase II trial: hsCRP; type: in vivo, human; details: 1 mg daily (HT8), Week 48
Protocol: as §2, §1, §3

[11] = tested on: CD4 counts; test: Phase II placebo-controlled trial in HIV immunological non-responders: CD4 counts; type: in vivo, human; details: for participants with a CD4 count increase over 50 cells/mm^3: placebo 34.6%; for mean absolute increase of CD4 count from baseline: week 48, placebo 32; for CD4 count at Week 48: FAS, with ART

CC(C)[C@]12O[C@H]1[C@@H]1O[C@]13[C@]1(O[C@H]1C[C@@]1(O)C4=C(CC[C@]31C)C(=O)OC4)[C@@H]2O [T8, (5R)-5-hydroxytriptolide]
inhibition of the activity of the NF-κB signal pathway activated by TNF-α [1]: effectively inhibit | inhibition of the activity of the background NF-κB signaling pathway [1]: effectively inhibit | inhibition of background NF-κB activity (untreated with TNF-alpha) ([1]; Example 1, HEK293T, 100 nM, 24 h, FIG. 1): effectively inhibit | inhibition of NF-κB activity stimulated by TNF-alpha ([1]; Example 1, HEK293T, TNF-alpha 20 ng/mL, 100 nM, 24 h, FIG. 1): effectively inhibit | virological suppression during the study [2]: virologically-suppressed | participants with treatment-emergent adverse events (TEAEs) ([3]; 0.5 mg daily (LT8), 48 weeks): 84.3% | drug-related SAEs ([3]; 0.5 mg or 1 mg daily, 48 weeks): No drug-related SAEs were reported | tolerability ([3]; 0.5 mg or 1 mg daily, all participants): well-tolerated | participants with treatment-emergent adverse events (TEAEs) ([3]; 1 mg daily (HT8), 48 weeks): 89.1% | TEAEs ≥Grade 3 ([3]; 1 mg daily (HT8), mostly neutrophil decrease and dyslipidemia): slightly more frequent | surface expressions of CD38 or HLA-DR on CD8 T cells [4]: comparable | mean change of serum IP-10 level ([5]; 0.5 mg daily (LT8)): -42.5 pg/mL | mean change of serum interferon-γ-induced protein 10 ([5]; 1 mg daily (HT8), 48 weeks): −72.1 | mean change of serum IP-10 level ([5]; 1 mg daily (HT8)): -72.1 pg/mL | inhibition of immune activation of CD4+T-cell subsets by PMA+Ionomycin (CD38, HLA-DR) [6]: significantly inhibit | inhibition of immune activation of CD4+T-cell subsets by anti-CD3/CD28 antibody (CD38, HLA-DR) [6]: significantly inhibit | HLA-DRCD4/CD4 ([6]; Example 3, PBMC, PMA 20 nM + Ionomycin 1 μM, 100 nM, 48 h, without compound 36.3%): 3.5% | CD38CD4/CD4 ([6]; Example 3, PBMC, PMA 20 nM + Ionomycin 1 μM, 100 nM, 48 h, without compound 41.6%): 31% | change of IL-6 [7]: slight decrease | inhibition of the proliferation of CD4+T-cells in healthy human peripheral blood [8]: significantly inhibit | proliferation of CD4+T cells stimulated by PHA (cell proliferation) ([8]; Example 2, PBMC, PHA-P 5 μg/mL, 100 nM, 48 h, without compound 16.6%): 1.9% | CC50 at 72 h [9]: ~0.435 µg/mL (≈ 1.16 µM) | change of HsCRP [10]: slight decrease | participants with a CD4 count increase over 50 cells/mm^3 ([11]; 0.5 mg daily (LT8), Week 48): 45.1% | mean absolute increase of CD4 count from baseline ([11]; 0.5 mg daily (LT8)): 49 cells/mm^3 | CD4 increase in participants with a baseline CD4 count 200-350 cells/mm^3 ([11]; 1 mg daily (HT8) over placebo): consistent superiority | participants achieving a CD4 increase >20% (superiority) ([11]; 1 mg daily (HT8), Week 48): unremarkable | participants with a CD4 count increase over 50 cells/mm^3 ([11]; 1 mg daily (HT8), Week 48): 50% | participants achieving a CD4 increase >20% ([11]; 1 mg daily (HT8), week 24, versus other groups): more participants | mean absolute increase of CD4 count from baseline ([11]; 1 mg daily (HT8)): 63 cells/mm^3 | mean increase of CD4 count in participants over 45 years old ([11]; 1 mg daily, 48 weeks, placebo 20): 96 cells/mm^3 | CD4 count at Week 48 ([11]; 0.5 mg daily oral (LT8), 48 weeks): 299 cells/mm^3 | CD4 count at Week 48 ([11]; 1 mg daily oral (HT8), 48 weeks): 303 cells/mm^3 | effect on CD4 in participants with a baseline CD4 count below 200 cells/mm^3 ([11]; Week 48): insignificant | changes of CD4/CD8 ratio ([11]; Week 48, between the three groups (0.5 mg, 1 mg, placebo)): comparable | benefit in CD4 counts in participants receiving SARS-COV-2 vaccination ([11]; high-dose (1 mg), stratified analysis): insignificant

CC(C)[C@]12O[C@H]1[C@@H]1O[C@]13[C@]1(O[C@H]1C[C@H]1C4=C(CC[C@@]13C)C(=O)OC4)[C@@H]2O [triptolide]
inhibition of the activity of the NF-κB signal pathway activated by TNF-α [1]: effectively inhibit | inhibition of the activity of the background NF-κB signaling pathway [1]: effectively inhibit | inhibition of immune activation of CD4+T-cell subsets by PMA+Ionomycin (CD38, HLA-DR) [6]: significantly inhibit | inhibition of immune activation of CD4+T-cell subsets by anti-CD3/CD28 antibody (CD38, HLA-DR) [6]: significantly inhibit | inhibition of the proliferation of CD4+T-cells in healthy human peripheral blood [8]: significantly inhibit | CC50 at 72 h [9]: ~0.017 µg/mL (≈ 0.0472 µM)
